Counter-ions that a name gives are not always drawn. Like-named read-outs stand apart in the source and are kept apart here.
Assays:
[1] = test system: cellular dehydrogenase activity; settings: for MTT (composite Z-score): normalized score vs mock-treated (DMSO) wells
C2C12 myotubes = settings: for Viability (composite Z-score): normalized score vs mock-treated (DMSO) wells
OXPHOS gene expression = assay type: cell-based, mouse; settings: for GE-HTS (composite Z-score): normalized score vs mock-treated (DMSO) wells
nuOXPHOS transcripts = assay type: cell-based, mouse; settings: for nucOX (composite Z-score): normalized score vs mock-treated (DMSO) wells
[2] = test system: mitochondrial membrane potential; assay type: cell-based, mouse; settings: for ΔΨm (composite Z-score): normalized score vs mock-treated (DMSO) wells
reactive oxygen species = assay type: cell-based, mouse; settings: for ROS (composite Z-score): normalized score vs mock-treated (DMSO) wells
cytochrome c = assay type: cell-based, mouse; settings: for cyt c (composite Z-score): normalized score vs mock-treated (DMSO) wells
mtOXPHOS transcripts = assay type: cell-based, mouse; settings: for mitoOX (composite Z-score): normalized score vs mock-treated (DMSO) wells
[3] = composite Z-score vs DMSO, Conc 20 μM
[4] = composite Z-score vs DMSO wells, Conc 20 μM
[5] = 20 μM, composite Z-score vs DMSO
[6] = Table 4, C2C12 myotubes, 48 h, composite Z-score

SMILES: COc1cc(C(C)=O)cc(OC)c1O [acetosyringone]
- MTT [1, 3]: −1.266
- Viability (C2C12 myotubes; [3]): −0.432
- GE-HTS (OXPHOS gene expression; [3]): 0.029
- nucOX (nuOXPHOS transcripts; [3]): −0.040
- ΔΨm [2, 3]: −0.370
- ROS (reactive oxygen species; [3]): 0.269
- cyt c (cytochrome c; [3]): 0.310
- mitoOX (mtOXPHOS transcripts; [3]): 0.201

SMILES: CC(=O)Nc1c(I)cc(I)c(C(=O)O)c1I [acetriazoic acid]
- MTT [1, 3]: −0.938
- Viability (C2C12 myotubes; [3]): 0.205
- GE-HTS (OXPHOS gene expression; [3]): −0.710
- nucOX (nuOXPHOS transcripts; [3]): −0.870
- ΔΨm [2, 3]: −0.059
- ROS (reactive oxygen species; [3]): 1.158
- cyt c (cytochrome c; [3]): −1.416
- mitoOX (mtOXPHOS transcripts; [3]): −0.320

SMILES: CC(=O)N[C@@H](CC(C)C)C(=O)O [acetyl-L-leucine]
- MTT [1, 4]: −0.804
- Viability (C2C12 myotubes; [4]): −0.465
- GE-HTS (OXPHOS gene expression; [4]): 0.328
- nucOX (nuOXPHOS transcripts; [4]): 0.438
- ΔΨm [2, 4]: −0.575
- ROS (reactive oxygen species; [4]): 1.139
- cyt c (cytochrome c; [4]): 0.267
- mitoOX (mtOXPHOS transcripts; [4]): 0.088

SMILES: CC(=O)O[C@H](CC(=O)[O-])C[N+](C)(C)C [acetylcarnitine]
- MTT [1, 4]: −1.275
- Viability (C2C12 myotubes; [4]): −0.980
- GE-HTS (OXPHOS gene expression; [4]): −1.051
- nucOX (nuOXPHOS transcripts; [4]): −1.015
- ΔΨm [2, 4]: −0.930
- ROS (reactive oxygen species; [4]): 0.476
- cyt c (cytochrome c; [4]): −0.192
- mitoOX (mtOXPHOS transcripts; [4]): −0.943

SMILES: CC(=O)OCC[N+](C)(C)C [acetylcholine]
- MTT [1, 5]: −0.712
- Viability (C2C12 myotubes; [5]): −0.299
- GE-HTS (OXPHOS gene expression; [5]): 0.358
- nucOX (nuOXPHOS transcripts; [5]): 0.533
- ΔΨm [2, 5]: −0.520
- ROS (reactive oxygen species; [5]): 0.622
- cyt c (cytochrome c; [5]): −0.038
- mitoOX (mtOXPHOS transcripts; [5]): 0.014

SMILES: CC(=O)Oc1ccccc1C(=O)Oc1ccccc1C(=O)O [acetylsalicylsalicylic acid]
- MTT (composite Z-score) ([1]; Conc 13.32 μM): −1.621
- Viability (composite Z-score) (C2C12 myotubes; Conc 13.32 μM): −0.840
- GE-HTS (composite Z-score) (OXPHOS gene expression; Conc 13.32 μM): −0.301
- nucOX (composite Z-score) (nuOXPHOS transcripts; Conc 13.32 μM): −0.249
- ΔΨm (composite Z-score) ([2]; Conc 13.32 μM): −0.808
- ROS (composite Z-score) (reactive oxygen species; Conc 13.32 μM): 0.399
- cyt c (composite Z-score) (cytochrome c; Conc 13.32 μM): −0.200
- mitoOX (composite Z-score) (mtOXPHOS transcripts; Conc 13.32 μM): −0.389

SMILES: CCN1C[C@]2(COC)[C@H](O)C[C@H](OC)[C@@]34[C@@H]5C[C@@]6(O)[C@H](OC(=O)c7ccccc7)[C@@H]5[C@@](OC(C)=O)([C@@H]([C@H](OC)[C@H]23)[C@@H]14)[C@@H](O)[C@@H]6OC [aconitine]
- MTT [1, 3]: −0.584
- Viability (C2C12 myotubes; [3]): 0.132
- GE-HTS (OXPHOS gene expression; [3]): 0.169
- nucOX (nuOXPHOS transcripts; [3]): 0.356
- ΔΨm [2, 3]: −0.073
- ROS (reactive oxygen species; [3]): 1.038
- cyt c (cytochrome c; [3]): 0.751
- cyt c (cytochrome c; composite Z-score vs mock-treated (DMSO) wells, concentration of each compound in μM): 1.609
- mitoOX (mtOXPHOS transcripts; [3]): −0.198

SMILES: CC[C@@]1(O)C[C@H](O[C@H]2C[C@H](N(C)C)[C@H](O)[C@H](C)O2)c2c(cc3c(c2O)C(=O)c2c(O)cccc2C3=O)[C@H]1C(=O)OC [aklavine]
- MTT [1, 4]: −6.213
- Viability (C2C12 myotubes; [4]): −2.971
- GE-HTS (OXPHOS gene expression; [4]): 0.706
- nucOX (nuOXPHOS transcripts; [4]): 0.430
- ΔΨm [2, 4]: −3.626
- ROS (reactive oxygen species; [4]): −2.347
- cyt c (cytochrome c; [4]): −5.658
- mitoOX (mtOXPHOS transcripts; [4]): 1.063

SMILES: NC(=O)c1ccc([N+](=O)[O-])cc1Cl [aklomide]
- MTT [1, 4]: 1.426
- Viability (C2C12 myotubes; [4]): 0.408
- GE-HTS (OXPHOS gene expression; [4]): 0.378
- nucOX (nuOXPHOS transcripts; [4]): 0.594
- ΔΨm [2, 4]: −0.447
- ROS (reactive oxygen species; [4]): 0.061
- cyt c (cytochrome c; [4]): 0.510
- mitoOX (mtOXPHOS transcripts; [4]): −0.136

SMILES: CCCCC(CC)CNC(=N)NC(=N)NCCCCCCNC(=N)NC(=N)NCC(CC)CCCC (centres unmarked) [alexidine]
- MTT [1]: −5.432
- MTT [1, 5]: −2.693
- Viability (C2C12 myotubes): −4.805
- Viability (C2C12 myotubes; [5]): −2.974
- GE-HTS (OXPHOS gene expression): −1.696
- GE-HTS (OXPHOS gene expression; [5]): −0.288
- nucOX (nuOXPHOS transcripts): −1.387
- nucOX (nuOXPHOS transcripts; [5]): −0.289
- ΔΨm [2]: −3.726
- ΔΨm [2, 5]: −1.139
- ROS (reactive oxygen species): −4.270
- ROS (reactive oxygen species; [5]): −0.298
- cyt c (cytochrome c): −3.201
- cyt c (cytochrome c; [5]): −3.981
- mitoOX (mtOXPHOS transcripts): −2.011
- mitoOX (mtOXPHOS transcripts; [5]): −0.150

SMILES: C[C@H](CCC(=O)O)[C@H]1CC[C@H]2[C@@H]3CC[C@H]4C[C@H](O)CC[C@]4(C)[C@H]3C[C@H](O)[C@]12C [allodeoxycholic acid]
- MTT [1, 3]: −2.126
- Viability (C2C12 myotubes; [3]): −1.161
- GE-HTS (OXPHOS gene expression; [3]): −0.905
- nucOX (nuOXPHOS transcripts; [3]): −0.903
- ΔΨm [2, 3]: 0.404
- ROS (reactive oxygen species; [3]): −0.164
- cyt c (cytochrome c; [3]): −2.903
- mitoOX (mtOXPHOS transcripts; [3]): −0.773

SMILES: Oc1ncnc2[nH]ncc12 [allopurinol]
- MTT [1, 5]: −1.611
- Viability (C2C12 myotubes; [5]): 0.376
- GE-HTS (OXPHOS gene expression; [5]): −0.869
- nucOX (nuOXPHOS transcripts; [5]): −0.849
- ΔΨm [2, 5]: −0.204
- ROS (reactive oxygen species; [5]): 1.448
- cyt c (cytochrome c; [5]): −0.105
- mitoOX (mtOXPHOS transcripts; [5]): −0.798

SMILES: N#CC(=Cc1cccc(O)c1)C(=O)O [alpha-cyano-3-hydroxycinnamic acid]
- MTT [1, 5]: −0.323
- Viability (C2C12 myotubes; [5]): −0.861
- GE-HTS (OXPHOS gene expression; [5]): −0.747
- nucOX (nuOXPHOS transcripts; [5]): −0.903
- ΔΨm [2, 5]: −0.165
- ROS (reactive oxygen species; [5]): 0.452
- cyt c (cytochrome c; [5]): 0.349
- mitoOX (mtOXPHOS transcripts; [5]): −0.285

SMILES: CC(=O)Oc1c(C)c(C)c2c(c1C)CCC(C)(CCCC(C)CCCC(C)CCCC(C)C)O2 (stereo not drawn) [alpha-tochopheryl acetate]
- MTT [1, 5]: −1.398
- Viability (C2C12 myotubes; [5]): −0.957
- GE-HTS (OXPHOS gene expression; [5]): 0.212
- nucOX (nuOXPHOS transcripts; [5]): 0.339
- ΔΨm [2, 5]: −0.734
- ROS (reactive oxygen species; [5]): 0.364
- cyt c (cytochrome c; [5]): 0.261
- mitoOX (mtOXPHOS transcripts; [5]): −0.094

SMILES: COc1cc2c(cc1OC)[C@@H]1C(=O)c3c(O)cc4c(c3O[C@@H]1CO2)C=CC(C)(C)O4 [alpha-toxicarol, reference compound]
- MTT [1, 6]: −1.982
- MTT [1, 3]: −1.982
- Viability (C2C12 myotubes; [6]): 0.304
- Viability (C2C12 myotubes; [3]): 0.304
- GE-HTS (OXPHOS gene expression; [3]): −0.046
- nucOX (nuOXPHOS transcripts; [3]): 0.124
- ΔΨm ([2]; Table 4, C2C12 myotubes, 48 h, JC-1, composite Z-score): 0.820
- ΔΨm [2, 3]: 0.820
- ROS (reactive oxygen species; [6]): 0.101
- ROS (reactive oxygen species; [3]): 0.101
- cyt c (cytochrome c; [3]): −2.637
- mitoOX (mtOXPHOS transcripts; [3]): −0.345

SMILES: COc1cc(OC)c2c(c1)OC(c1ccccc1)CC2=O (centres unmarked) [alpinetin methyl ether]
- MTT (composite Z-score) ([1]; Conc 20 μM): −0.694
- Viability (composite Z-score) (C2C12 myotubes; Conc 20 μM): 0.220
- GE-HTS (composite Z-score) (OXPHOS gene expression; Conc 20 μM): −0.565
- nucOX (composite Z-score) (nuOXPHOS transcripts; Conc 20 μM): −0.437
- ΔΨm (composite Z-score) ([2]; Conc 20 μM): −0.286
- ROS (composite Z-score) (reactive oxygen species; Conc 20 μM): 0.827
- cyt c (composite Z-score) (cytochrome c; Conc 20 μM): −0.145
- mitoOX (composite Z-score) (mtOXPHOS transcripts; Conc 20 μM): −0.717

SMILES: CN(C)c1nc(N(C)C)nc(N(C)C)n1 [altretamine]
- MTT [1]: −0.442
- MTT [1, 5]: −1.416
- Viability (C2C12 myotubes): −0.533
- Viability (C2C12 myotubes; [5]): −0.315
- GE-HTS (OXPHOS gene expression): 0.884
- GE-HTS (OXPHOS gene expression; [5]): 0.379
- nucOX (nuOXPHOS transcripts): 0.750
- nucOX (nuOXPHOS transcripts; [5]): 0.488
- ΔΨm [2]: −0.440
- ΔΨm [2, 5]: −0.322
- ROS (reactive oxygen species): 0.462
- ROS (reactive oxygen species; [5]): 0.103
- cyt c (cytochrome c): 0.040
- cyt c (cytochrome c; [5]): −0.631
- mitoOX (mtOXPHOS transcripts): 0.972
- mitoOX (mtOXPHOS transcripts; [5]): 0.069

SMILES: CCN(CCCc1ccccc1)CCCc1ccccc1 [alverine citrate]
- MTT [1, 3]: −0.018
- Viability (C2C12 myotubes; [3]): 0.885
- GE-HTS (OXPHOS gene expression; [3]): −0.238
- nucOX (nuOXPHOS transcripts; [3]): −0.098
- ΔΨm [2, 3]: 0.433
- ROS (reactive oxygen species; [3]): 1.116
- cyt c (cytochrome c; [3]): −0.433
- mitoOX (mtOXPHOS transcripts; [3]): −0.442

SMILES: NCC[C@H](O)C(=O)N[C@@H]1C[C@H](N)[C@@H](O[C@H]2O[C@H](CN)[C@@H](O)[C@H](O)[C@H]2O)[C@H](O)[C@H]1O[C@H]1O[C@H](CO)[C@@H](O)[C@H](N)[C@H]1O [amikacin]
- MTT [1, 3]: −1.688
- Viability (C2C12 myotubes; [3]): 0.034
- GE-HTS (OXPHOS gene expression; [3]): 0.332
- nucOX (nuOXPHOS transcripts; [3]): 0.268
- ΔΨm [2, 3]: −0.116
- ROS (reactive oxygen species; [3]): 0.301
- cyt c (cytochrome c; [3]): −0.090
- mitoOX (mtOXPHOS transcripts; [3]): 0.338

Source: US20090143279A1 (priority 2007, published 2009)
